According to US20230062100A1, “SUBSTITUTED AMINOQUINOLONES AS DGKALPHA INHIBITORS FOR IMMUNE ACTIVATION” (Bayer Aktiengesellschaft, priority 2019, published 2023):
pIC50: −log10 of the molar value.

Legend:
[1] = target: T1, DGKα (Homo sapiens, UniProt P23743); settings: literature report; cited from earlier work
Target sequence in this assay (P23743 whole entry, species assumed): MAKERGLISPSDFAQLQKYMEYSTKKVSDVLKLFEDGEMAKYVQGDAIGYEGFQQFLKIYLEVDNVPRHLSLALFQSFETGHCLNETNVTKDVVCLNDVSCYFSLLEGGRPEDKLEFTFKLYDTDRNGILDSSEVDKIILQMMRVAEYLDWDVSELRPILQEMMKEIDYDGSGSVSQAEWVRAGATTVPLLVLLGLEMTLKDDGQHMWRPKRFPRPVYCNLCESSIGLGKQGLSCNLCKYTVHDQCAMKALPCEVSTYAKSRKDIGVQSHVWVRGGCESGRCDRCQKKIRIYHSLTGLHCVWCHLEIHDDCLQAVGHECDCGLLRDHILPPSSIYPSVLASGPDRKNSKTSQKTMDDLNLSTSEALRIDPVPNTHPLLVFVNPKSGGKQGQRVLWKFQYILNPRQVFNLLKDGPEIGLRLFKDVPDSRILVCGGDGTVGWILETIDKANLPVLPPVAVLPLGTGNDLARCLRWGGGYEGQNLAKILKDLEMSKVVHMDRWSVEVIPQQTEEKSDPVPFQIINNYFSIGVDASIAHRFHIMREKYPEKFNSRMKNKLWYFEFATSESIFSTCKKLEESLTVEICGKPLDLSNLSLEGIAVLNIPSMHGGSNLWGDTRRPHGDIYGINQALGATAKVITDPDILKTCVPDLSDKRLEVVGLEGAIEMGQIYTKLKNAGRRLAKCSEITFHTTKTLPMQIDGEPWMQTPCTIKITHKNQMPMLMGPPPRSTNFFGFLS

[2] = tested on: GBM tumors; settings: concurrent administration; literature report; cited from earlier work
[3] = target: T1, DGKα; experiment: Human DGKα kinase activity inhibition assay (ADP-Glo); format: biochemical; settings: in vitro human DGKα kinase activity inhibition assay
Outline: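 C-terminally FLAG-tagged full-length human DGKα from baculovirus/insect cells (typically ~0.1 nM) phosphorylated 1,2-dioleoyl-sn-glycerol in octyl-β-D-glucopyranoside micelles in MOPS pH 7.4. ADP formed was quantified by ADP-Glo luminescence after 1 h ATP depletion at 22 °C.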
Target sequence in this assay (P23743 with tags, fused parts or gaps): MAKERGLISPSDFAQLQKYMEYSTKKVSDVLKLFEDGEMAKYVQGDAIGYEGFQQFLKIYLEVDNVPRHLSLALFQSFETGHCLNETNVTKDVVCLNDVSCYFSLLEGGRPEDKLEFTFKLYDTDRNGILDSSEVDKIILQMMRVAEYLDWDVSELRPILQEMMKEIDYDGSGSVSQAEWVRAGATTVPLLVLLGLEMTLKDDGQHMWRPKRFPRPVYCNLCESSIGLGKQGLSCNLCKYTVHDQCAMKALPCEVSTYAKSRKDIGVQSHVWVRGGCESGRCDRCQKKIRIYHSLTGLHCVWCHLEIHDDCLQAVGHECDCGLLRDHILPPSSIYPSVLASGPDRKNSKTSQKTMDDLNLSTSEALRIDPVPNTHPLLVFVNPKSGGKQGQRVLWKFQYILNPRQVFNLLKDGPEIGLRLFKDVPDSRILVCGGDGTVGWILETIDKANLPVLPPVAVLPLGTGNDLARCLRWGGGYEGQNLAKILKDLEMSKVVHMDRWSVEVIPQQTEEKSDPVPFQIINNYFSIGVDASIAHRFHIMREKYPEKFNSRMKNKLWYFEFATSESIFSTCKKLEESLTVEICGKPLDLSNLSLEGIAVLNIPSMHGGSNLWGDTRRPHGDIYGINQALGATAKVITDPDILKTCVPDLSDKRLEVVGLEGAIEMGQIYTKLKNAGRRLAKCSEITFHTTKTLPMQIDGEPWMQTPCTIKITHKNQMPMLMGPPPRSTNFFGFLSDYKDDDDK

| pIC50 [3] | Structure (SMILES) | further results |
| --- | --- | --- |
|  | O=C1/C(=C\C=C\c2ccco2)SC(=S)N1NS(=O)(=O)c1ccccc1 [CU-3] | inhibitory activity on DGKα [1]: sub-micromolar |
|  | Cc1nc2sccn2c(=O)c1CCN1CCC(=C(c2ccc(F)cc2)c2ccc(F)cc2)CC1 [Ritanserin] | inhibitory activity on DGKα [1]: comparable activity |
|  | Cc1nc2sccn2c(=O)c1CCN1CCC(=C(c2ccccc2)c2ccc(F)cc2)CC1 [Example R59022] | growth of intracranially injected GBM tumors [2]: decreased growth |
|  | Cc1ccc2c(C(=O)CN3CCN(C(=O)c4ccco4)CC3)c(C)[nH]c2c1 [AMB639752] | inhibitory activity on DGKα [1]: micromolar |
| 7.74 | Cn1c(=O)c(C#N)c(N2CCC(Oc3ccc(OC(F)(F)F)cc3)CC2)c2cccc(Cl)c21 [Example 131, 8-chloro-1-methyl-2-oxo-4-{4-[4-(trifluoromethoxy)phenoxy]piperidin-1-yl}-1,2-dihydroquinoline-3-carbonitrile] |  |
| 8.20 | COc1cccc(OC2CCN(c3c(C#N)c(=O)n(C)c4ccccc34)CC2)c1 [Example 4, 4-[4-(3-methoxyphenoxy)piperidin-1-yl]-1-methyl-2-oxo-1,2-dihydroquinoline-3-carbonitrile] |  |
| 7.85 | COc1ccc2c(N3CCC(Oc4ccc(C(F)(F)F)cc4)CC3)c(C#N)c(=O)n(C)c2c1 [Example 66, 7-methoxy-1-methyl-2-oxo-4-{4-[4-(trifluoromethyl)phenoxy]piperidin-1-yl}-1,2-dihydroquinoline-3-carbonitrile] |  |
| 7.80 | COc1ccc(COC2CCN(c3c(C#N)c(=O)n(C)c4ccccc34)CC2)cc1 [Example 109, 4-{4-[(4-methoxyphenyl)methoxy]piperidin-1-yl}-1-methyl-2-oxo-1,2-dihydroquinoline-3-carbonitrile] |  |
| 8.03 | Cc1ccc2c(c1)c(N1CCC(Oc3ccccc3C#N)CC1)c(C#N)c(=O)n2C [Example 155, 4-[4-(2-cyanophenoxy)piperidin-1-yl]-1,6-dimethyl-2-oxo-1,2-dihydroquinoline-3-carbonitrile] |  |
| 8.24 | Cc1ccc2c(N3CCC(Oc4ccccc4)CC3)c(C#N)c(=O)n(C)c2c1 [Example 88, 1,7-dimethyl-2-oxo-4-(4-phenoxypiperidin-1-yl)-1,2-dihydroquinoline-3-carbonitrile] |  |
| 8.21 | CCOC(=O)c1ccc(OC2CCN(c3c(C(N)=O)c(=O)n(C)c4ccccc34)CC2)cc1 [Example 51, ethyl 4-{[1-(3-carbamoyl-1-methyl-2-oxo-1,2-dihydroquinolin-4-yl)piperidin-4-yl]oxy}benzoate] |  |
| 6.27 | CN1CCN(c2ccc3c(N4CCC(Oc5cccc(Cl)c5)CC4)c(C#N)c(=O)n(C)c3c2)CC1 [Example 80, 4-[4-(3-chlorophenoxy)piperidin-1-yl]-1-methyl-7-(4-methylpiperazin-1-yl)-2-oxo-1,2-dihydroquinoline-3-carbonitrile] |  |
| 8.42 | COc1cccc(OC2CCN(c3c(C#N)c(=O)n(C)c4ccc(C)cc34)CC2)c1 [Example 152, 4-[4-(3-methoxyphenoxy)piperidin-1-yl]-1,6-dimethyl-2-oxo-1 2-dihydroquinoline-3-carbonitrile] |  |
